Source: the supplement of paper PMC10307832

Legend:
Assay in all cases: relative viability (nuclei count vs DMSO), 5 days (fraction); higher = more cells survive
NCI-H2342 = system: NCI-H2342
Outline: (§1)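 Lung cancer cell lines were pin-tool dosed in 1536-well plates on the day after seeding, with either a lone drug or a fixed anchor-drug dose plus five library-drug doses (not always all listed) in √10 steps. Nuclei were counted on 4× images after 5 days. Relative viability is the ratio of treated-well to vehicle-well nuclei counts, with each value a median of duplicate plates.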

HCC-15 = system: HCC-15
Outline: as §1

A-427 = system: A-427
Outline: as §1

HCC-827 = system: HCC-827
Outline: as §1

HARA = system: HARA
Outline: as §1

201T = system: 201T
Outline: as §1

NCI-H1975 = system: NCI-H1975
Outline: as §1

EKVX = system: EKVX
Outline: as §1

BEN = system: BEN
Outline: as §1

NCI-H596 = system: NCI-H596
Outline: as §1

NCI-H23 = system: NCI-H23
Outline: as §1

NCI-H1437 = system: NCI-H1437
Outline: as §1

NCI-H358 = system: NCI-H358
Outline: as §1

NCI-H1666 = system: NCI-H1666
Outline: as §1

NCI-H650 = system: NCI-H650
Outline: as §1

HCC-44 = system: HCC-44
Outline: as §1

SW 900 = system: SW 900
Outline: as §1

NCI-H838 = system: NCI-H838
Outline: as §1

NCI-H1792 = system: NCI-H1792
Outline: as §1

NCI-H441 = system: NCI-H441
Outline: as §1

For `O=c1cc(-c2cccc3c2Sc2ccccc2S3)oc(N2CCOCC2)c1` + NC(=O)Nc1cc(-c2cccc(F)c2)sc1C(=O)N[C@H]1CCCNC1 [AZD7762] (partner 0.2 µM), the relative viability (NCI-H2342; first compound 0.08 µM) was 0.415, the relative viability (NCI-H2342; first compound 0.253 µM) was 0.466 and the relative viability (NCI-H2342; first compound 0.8 µM) was 0.545. It also gave a relative viability (NCI-H2342; first compound 2.53 µM) of 0.529, a relative viability (NCI-H2342; first compound 8 µM) of 0.541 and a relative viability (HCC-15; first compound 0.08 µM) of 1.22. It also gave a relative viability (HCC-15; first compound 0.253 µM) of 1.51, a relative viability (HCC-15; first compound 0.8 µM) of 1.18 and a relative viability (HCC-15; first compound 2.53 µM) of 1.18. It also gave a relative viability (HCC-15; first compound 8 µM) of 1.28, a relative viability (A-427; first compound 0.08 µM) of 0.715 and a relative viability (A-427; first compound 0.253 µM) of 0.842. It also gave a relative viability (A-427; first compound 0.8 µM) of 0.791, a relative viability (A-427; first compound 2.53 µM) of 0.41 and a relative viability (A-427; first compound 8 µM) of 0.616. For the same compound, the relative viability (HCC-827; first compound 0.08 µM) was 0.199, the relative viability (HCC-827; first compound 0.253 µM) was 0.196 and the relative viability (HCC-827; first compound 0.8 µM) was 0.165. The relative viability (HCC-827; first compound 2.53 µM) was 0.122, the relative viability (HCC-827; first compound 8 µM) was 0.188 and the relative viability (HARA; first compound 0.08 µM) was 0.234. It also gave a relative viability (HARA; first compound 0.253 µM) of 0.327, a relative viability (HARA; first compound 0.8 µM) of 0.364 and a relative viability (HARA; first compound 2.53 µM) of 0.208. It also gave a relative viability (HARA; first compound 8 µM) of 0.256, a relative viability (201T; first compound 0.08 µM) of 0.598 and a relative viability (201T; first compound 0.253 µM) of 0.686. It also gave a relative viability (201T; first compound 0.8 µM) of 0.741, a relative viability (201T; first compound 2.53 µM) of 0.655 and a relative viability (201T; first compound 8 µM) of 0.546. It also gave a relative viability (NCI-H1975; first compound 0.08 µM) of 0.601, a relative viability (NCI-H1975; first compound 0.253 µM) of 0.733 and a relative viability (NCI-H1975; first compound 0.8 µM) of 0.502. For the same compound, the relative viability (NCI-H1975; first compound 2.53 µM) was 0.631, the relative viability (NCI-H1975; first compound 8 µM) was 0.678 and the relative viability (EKVX; first compound 0.08 µM) was 0.67. It also gave a relative viability (EKVX; first compound 0.253 µM) of 0.709, a relative viability (EKVX; first compound 0.8 µM) of 0.74 and a relative viability (EKVX; first compound 2.53 µM) of 0.669. The relative viability (EKVX; first compound 8 µM) was 0.717, the relative viability (BEN; first compound 0.08 µM) was 0.694 and the relative viability (BEN; first compound 0.253 µM) was 0.656. The relative viability (BEN; first compound 0.8 µM) was 0.647, the relative viability (BEN; first compound 2.53 µM) was 0.618 and the relative viability (BEN; first compound 8 µM) was 0.734. For the same compound, the relative viability (NCI-H596; first compound 0.08 µM) was 1.04, the relative viability (NCI-H596; first compound 0.253 µM) was 1.1 and the relative viability (NCI-H596; first compound 0.8 µM) was 1.15. For the same compound, the relative viability (NCI-H596; first compound 2.53 µM) was 1, the relative viability (NCI-H596; first compound 8 µM) was 1.22 and the relative viability (NCI-H23; first compound 0.08 µM) was 0.205. The relative viability (NCI-H23; first compound 0.253 µM) was 0.251, the relative viability (NCI-H23; first compound 0.8 µM) was 0.349 and the relative viability (NCI-H23; first compound 2.53 µM) was 0.203. For the same compound, the relative viability (NCI-H23; first compound 8 µM) was 0.229, the relative viability (NCI-H1437; first compound 0.08 µM) was 1.07 and the relative viability (NCI-H1437; first compound 0.253 µM) was 1.23. For the same compound, the relative viability (NCI-H1437; first compound 0.8 µM) was 1.2, the relative viability (NCI-H1437; first compound 2.53 µM) was 1.17 and the relative viability (NCI-H1437; first compound 8 µM) was 1.23. It also gave a relative viability (NCI-H358; first compound 0.08 µM) of 0.456, a relative viability (NCI-H358; first compound 0.253 µM) of 0.581 and a relative viability (NCI-H358; first compound 0.8 µM) of 0.523. For the same compound, the relative viability (NCI-H358; first compound 2.53 µM) was 0.501, the relative viability (NCI-H358; first compound 8 µM) was 0.534 and the relative viability (NCI-H1666; first compound 0.08 µM) was 0.76. For the same compound, the relative viability (NCI-H1666; first compound 0.253 µM) was 0.928, the relative viability (NCI-H1666; first compound 0.8 µM) was 0.781 and the relative viability (NCI-H1666; first compound 2.53 µM) was 0.773. It also gave a relative viability (NCI-H1666; first compound 8 µM) of 0.85, a relative viability (NCI-H650; first compound 0.08 µM) of 0.886 and a relative viability (NCI-H650; first compound 0.253 µM) of 1.09. For the same compound, the relative viability (NCI-H650; first compound 0.8 µM) was 1.03, the relative viability (NCI-H650; first compound 2.53 µM) was 0.668 and the relative viability (NCI-H650; first compound 8 µM) was 1.01. For the same compound, the relative viability (HCC-44; first compound 0.08 µM) was 1.06, the relative viability (HCC-44; first compound 0.253 µM) was 1.04 and the relative viability (HCC-44; first compound 0.8 µM) was 0.937. The relative viability (HCC-44; first compound 2.53 µM) was 0.991, the relative viability (HCC-44; first compound 8 µM) was 0.986 and the relative viability (SW 900; first compound 0.253 µM) was 0.862. It also gave a relative viability (SW 900; first compound 0.8 µM) of 0.719, a relative viability (SW 900; first compound 2.53 µM) of 0.525 and a relative viability (SW 900; first compound 8 µM) of 0.418. It also gave a relative viability (NCI-H838; first compound 0.08 µM) of 0.933, a relative viability (NCI-H838; first compound 0.253 µM) of 1.09 and a relative viability (NCI-H838; first compound 0.8 µM) of 0.898. It also gave a relative viability (NCI-H838; first compound 2.53 µM) of 0.941, a relative viability (NCI-H838; first compound 8 µM) of 0.98 and a relative viability (NCI-H1792; first compound 0.08 µM) of 0.541. For the same compound, the relative viability (NCI-H1792; first compound 0.253 µM) was 0.632, the relative viability (NCI-H1792; first compound 0.8 µM) was 0.549 and the relative viability (NCI-H1792; first compound 2.53 µM) was 0.55. The relative viability (NCI-H1792; first compound 8 µM) was 0.583, the relative viability (NCI-H441; first compound 0.08 µM) was 0.965 and the relative viability (NCI-H441; first compound 0.253 µM) was 1.24. The relative viability (NCI-H441; first compound 0.8 µM) was 1.18, the relative viability (NCI-H441; first compound 2.53 µM) was 0.941 and the relative viability (NCI-H441; first compound 8 µM) was 1.21.
